In patent US20190100534A1, “Cephem Compounds with Latent Reactive Groups” (Gladius Pharmaceuticals, Inc., priority 2017, published 2019):

Assays:
[1] = system: Pseudomonas aeruginosa PA-RR-(G8062859); test: MIC determination; format: cell-based; conditions: Pseudomonas aeruginosa; PA-RR-(G8062859); CAMH broth, 20 μM Apo-Transferrin, 37° C., 18 hours; read-out: Minimum Inhibitory Concentrations, PA-RR-(G8062859)
Method in brief: (§1)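 Using an iron-depleting medium (CAMH plus 20 μM apo-transferrin), organisms at 0.5 McFarland faced compound from 64 μg/mL downward in twofold steps. Readout: visual, after 18 h at 37 °C.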

[2] = system: Pseudomonas aeruginosa PA-RR-(purple Fre D); test: MIC determination; format: cell-based; conditions: Pseudomonas aeruginosa, CAMH broth, 20 μM Apo-Transferrin, 37° C., 18 hours, read-out: Minimum Inhibitory Concentrations, PA-RR-(purple Fre D)
Method in brief: as §1

EC (RR -1) = test: MIC determination; format: cell-based, Escherichia coli; conditions: CAMH broth, 20 μM Apo-Transferrin, 37° C., 18 hours
Method in brief: as §1

EC (RR -2) = test: MIC determination; format: cell-based, Escherichia coli; conditions: CAMH broth, 20 μM Apo-Transferrin, 37° C., 18 hours
Method in brief: as §1

EC (URMC-1) = test: MIC determination; format: cell-based, Escherichia coli; conditions: Escherichia coli, CAMH broth, 20 μM Apo-Transferrin, 37° C., 18 hours, read-out: Minimum Inhibitory Concentrations, EC (URMC-1)
Method in brief: as §1

EC (URMC-2) = test: MIC determination; format: cell-based, Escherichia coli; conditions: Escherichia coli, CAMH broth, 20 μM Apo-Transferrin, 37° C., 18 hours, read-out: Minimum Inhibitory Concentrations, EC (URMC-2)
Method in brief: as §1

EC (URMC-3) = test: MIC determination; format: cell-based, Escherichia coli; conditions: Escherichia coli, CAMH broth, 20 μM Apo-Transferrin, 37° C., 18 hours, read-out: Minimum Inhibitory Concentrations, EC (URMC-3)
Method in brief: as §1

EC(ATCC NDM-1) = test: MIC determination; format: cell-based, Escherichia coli; conditions: Escherichia coli, CAMH broth, 20 μM Apo-Transferrin, 37° C., 18 hours, read-out: Minimum Inhibitory Concentrations, EC(ATCC NDM-1)
Method in brief: as §1

EC(JMI OXA-48) = test: MIC determination; format: cell-based, Escherichia coli; conditions: Escherichia coli, CAMH broth, 20 μM Apo-Transferrin, 37° C., 18 hours, read-out: Minimum Inhibitory Concentrations, EC(JMI OXA-48)
Method in brief: as §1

EC(KB1 CTX-M-15) = test: MIC determination; format: cell-based, Escherichia coli; conditions: Escherichia coli, CAMH broth, 20 μM Apo-Transferrin, 37° C., 18 hours, read-out: Minimum Inhibitory Concentrations, EC(KB1 CTX-M-15)
Method in brief: as §1

EC(KB2 CTX-M-15) = test: MIC determination; format: cell-based, Escherichia coli; conditions: Escherichia coli, CAMH broth, 20 μM Apo-Transferrin, 37° C., 18 hours, read-out: Minimum Inhibitory Concentrations, EC(KB2 CTX-M-15)
Method in brief: as §1

KP (ATCC KPC-3) = test: MIC determination; format: cell-based, Klebsiella pneumoniae; conditions: CAMH broth, 20 μM Apo-Transferrin, 37° C., 18 hours
Method in brief: as §1

KP (GJ 5659 TEM-26) = test: MIC determination; format: cell-based, Klebsiella pneumoniae; conditions: CAMH broth, 20 μM Apo-Transferrin, 37° C., 18 hours
Method in brief: as §1

KP (RR -1) = test: MIC determination; format: cell-based, Klebsiella pneumoniae; conditions: CAMH broth, 20 μM Apo-Transferrin, 37° C., 18 hours
Method in brief: as §1

KP (URMC-1) = test: MIC determination; format: cell-based, Klebsiella pneumoniae; conditions: CAMH broth, 20 μM Apo-Transferrin, 37° C., 18 hours
Method in brief: as §1

KP (URMC-2) = test: MIC determination; format: cell-based, Klebsiella pneumoniae; conditions: CAMH broth, 20 μM Apo-Transferrin, 37° C., 18 hours
Method in brief: as §1

KP (URMC-3) = test: MIC determination; format: cell-based, Klebsiella pneumoniae; conditions: CAMH broth, 20 μM Apo-Transferrin, 37° C., 18 hours
Method in brief: as §1

KP(GJ 5934 TEM-26) = test: MIC determination; format: cell-based, Klebsiella pneumoniae; conditions: CAMH broth, 20 μM Apo-Transferrin, 37° C., 18 hours
Method in brief: as §1

KP(JMI KPC-2) = test: MIC determination; format: cell-based, Klebsiella pneumoniae; conditions: CAMH broth, 20 μM Apo-Transferrin, 37° C., 18 hours
Method in brief: as §1

KP(ATCC TEM-10/TEM-12) = format: cell-based, Klebsiella pneumoniae; conditions: CAMH broth, 20 μM Apo-Transferrin, 37° C., 18 hours
Method in brief: as §1

PM (RR -1) = test: MIC determination; format: cell-based, Proteus mirabilis; conditions: CAMH broth, 20 μM Apo-Transferrin, 37° C., 18 hours
Procedure: Sterile technique was used throughout these experiments. Suspensions of organisms were removed from storage (−80° C.) and partially thawed. Partially thawed organisms (1 μL) were inoculated into 3 mL sterile LB Broth in a sterile culture tube and capped, then cultured at 37° C. with shaking for 4-5 hours until the optical density at 600 nm (OD600) was greater than 0.1 on a single beam spectrophotometer.
The concentration of organisms was adjusted to 0.08-0.1 OD600 (0.5 McFarland units) by dilution with sterile cation-adjusted Meuller-Hinton (CAMH) broth. The suspensions were used within 30 minutes of preparation.
A stock solution was made of each test compound by measuring 6.4 mg of the compound on an analytical balance and dissolving it in DMSO (1 mL) to get a transparent solution. The solutions were stored at −20° C. and thawed prior to use.
Sterile CAMH broth (200 μL) containing 20 μM Apo-Transferrin was pipetted into the first row of 8 columns of a sterile, round-bottomed, transparent, 96-well microplate using an 8-channel pipette equipped with sterile tips. One hundred μL was pipetted into the wells of the remaining 11 rows.
With an 8-channel pipette equipped with sterile tips, 100 μL of the first row solution was transferred to the second row and mixed. The process was repeated for the second to third rows and continued through row 11. One hundred μL from row 11 was removed and discarded so that all 12 rows contained 100 μL. Row 12 contained no compound and rows 1-11 contained 64, 32, 16, 8, 4, 2, 1, 0.5, 0.25, 0.125, […] of a given compound.
Inoculant suspensions (0.5 μL) were added to the 12 wells of each column. The plates were then covered and incubated at 37° C. overnight for 18 hours.
For each organism the MIC was determined by identifying the transparent well with the lowest test compound concentration.

ENC (ATCC NDM-1) = test: MIC determination; format: cell-based, Enterobacter cloacae; conditions: CAMH broth, 20 μM Apo-Transferrin, 37° C., 18 hours
Method in brief: as §1

[3] = system: Isogenic E. coli J58 strain carrying SHV-1; test: MIC determination, isogenic E. coli strains; format: cell-based; conditions: Escherichia coli, 18 h, read-out: Mimimum Inhibitory Concentrations, SHV-1
Method in brief: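 MIC is the lowest compound concentration leaving a transparent well after overnight (18 h) incubation at 37 °C. The test strain was E. coli J53 expressing plasmid-borne SHV-1 beta-lactamase from pBC-SK(+), adjusted to 0.5 McFarland. Compounds were twofold serially diluted, starting at 64 μg/mL, in CAMH broth supplemented with 20 μM apo-transferrin.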

[4] = system: Isogenic E. coli J58 strain carrying KPC-2; test: MIC determination, isogenic E. coli strains; format: cell-based; conditions: Escherichia coli, 18 h, read-out: Mimimum Inhibitory Concentrations, KPC-2
Method in brief: (§2)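 Broth microdilution in cation-adjusted Mueller-Hinton broth with 20 μM apo-transferrin, compound at 64 down to […], inoculum set to 0.5 McFarland. E. coli J53 transformed with pBC-SK(+) carrying the synthetic beta-lactamase gene was used. Plates were incubated 18 h at 37 °C; MIC is the lowest concentration giving a clear well.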

[5] = system: Isogenic E. coli J58 strain carrying KPC-3; test: MIC determination, isogenic E. coli strains; format: cell-based; conditions: Escherichia coli, 18 h, read-out: Mimimum Inhibitory Concentrations, KPC-3
Method in brief: as §2

[6] = system: Isogenic E. coli J58 strain carrying IMP-1; test: MIC determination, isogenic E. coli strains; format: cell-based; conditions: Escherichia coli, 18 h, read-out: Mimimum Inhibitory Concentrations, IMP-1
Method in brief: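 Broth microdilution in cation-adjusted Mueller-Hinton broth with 20 μM apo-transferrin, compound serially diluted two-fold from 64 μg/mL, against E. coli J53 carrying plasmid-borne IMP-1. Inoculum adjusted to 0.5 McFarland; plates incubated 18 h at 37° C. MIC taken as lowest concentration giving a clear well.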

CC(C)(O/N=C(\C(=O)N[C@@H]1C(=O)N2C(C(=O)O)=C(C=Cc3ccc(C[N+]4(C)CCc5c(Cl)c(O)c(O)c(Cl)c5C4)cc3)CS[C@H]12)c1csc(N)n1)C(=O)O (mixture of isomers) [Compound 429, 2-(4-((E/Z)-2-((6R,7R)-7-((Z)-2-(2-aminothiazol-4-yl)-2-(((2-carboxypropan-2-yl)oxy)imino)acetamido)-2-carboxy-8-oxo-5-thia-1-azabicyclo[4.2.0]oct-2-en-3-yl)vinyl)benzyl)-5,8 dichloro-6,7-dihydroxy-2-methyl-1,2,3,4-tetrahydroisoquinolin-2-ium]
MIC [1]: 0.5 µg/mL | MIC [2]: 2 µg/mL | Mimimum Inhibitory Concentrations, EC (RR -1) (EC (RR -1)): ≤0.06 microgram/mL | Mimimum Inhibitory Concentrations, EC (RR -2) (EC (RR -2)): ≤0.06 microgram/mL | MIC (EC (URMC-1)): 0.5 µg/mL | MIC (EC (URMC-2)): 0.13 µg/mL | MIC (EC (URMC-3)): 0.5 µg/mL | MIC (EC(ATCC NDM-1)): > 64 µg/mL | MIC (EC(JMI OXA-48)): 2 µg/mL | MIC (EC(KB1 CTX-M-15)): 8 µg/mL | MIC (EC(KB2 CTX-M-15)): 8 µg/mL | Minimum Inhibitory Concentrations, KP (ATCC KPC-3) (KP (ATCC KPC-3)): >64 microgram/mL | Minimum Inhibitory Concentrations, KP (GJ 5659 TEM-26) (KP (GJ 5659 TEM-26)): 0.5 microgram/mL | Mimimum Inhibitory Concentrations, KP (RR -1) (KP (RR -1)): 0.25 microgram/mL | Minimum Inhibitory Concentrations, KP (URMC-1) (KP (URMC-1)): ≤0.06 microgram/mL | Minimum Inhibitory Concentrations, KP (URMC-2) (KP (URMC-2)): ≤0.06 microgram/mL | Minimum Inhibitory Concentrations, KP (URMC-3) (KP (URMC-3)): ≤0.06 microgram/mL | Minimum Inhibitory Concentrations, KP(GJ 5934 TEM-26) (KP(GJ 5934 TEM-26)): 0.5 microgram/mL | Minimum Inhibitory Concentrations, KP(JMI KPC-2) (KP(JMI KPC-2)): 16 microgram/mL | Minimum Inhibitory Concentrations, KP(ATCC TEM-10/TEM-12) (KP(ATCC TEM-10/TEM-12)): 4 microgram/mL | Mimimum Inhibitory Concentrations, PM (RR -1) (PM (RR -1)): ≤0.06 microgram/mL | Mimimum Inhibitory Concentrations, ENC (ATCC NDM-1) (ENC (ATCC NDM-1)): >64 microgram/mL | MIC [3]: 0.25 µg/mL | MIC [4]: 4 µg/mL | MIC [5]: 1 µg/mL | MIC [6]: ≤ 0.06 µg/mL
